Experimental data as given in US20260327264A1, “PEPTIDE INHIBITORS OF INTERLEUKIN-23 RECEPTOR” (Zealand Pharma A/S, priority 2023, published 2026).

Experiments:
human IL-23R = target: T1, human IL-23R (Homo sapiens, UniProt Q5VWK5); assay: Binding assay: displacement of fluorophore (TAMRA)-labelled reference compound from human IL-23R (BRET, Nluc-IL23R fusion protein membranes)
T1 construct: Nanoluc luciferase (Nluc); secretion signal encoded by the plasmid (not specified); expressed in transfected cells; crude membranes used in the assay
T1 sequence (Q5VWK5 22-629): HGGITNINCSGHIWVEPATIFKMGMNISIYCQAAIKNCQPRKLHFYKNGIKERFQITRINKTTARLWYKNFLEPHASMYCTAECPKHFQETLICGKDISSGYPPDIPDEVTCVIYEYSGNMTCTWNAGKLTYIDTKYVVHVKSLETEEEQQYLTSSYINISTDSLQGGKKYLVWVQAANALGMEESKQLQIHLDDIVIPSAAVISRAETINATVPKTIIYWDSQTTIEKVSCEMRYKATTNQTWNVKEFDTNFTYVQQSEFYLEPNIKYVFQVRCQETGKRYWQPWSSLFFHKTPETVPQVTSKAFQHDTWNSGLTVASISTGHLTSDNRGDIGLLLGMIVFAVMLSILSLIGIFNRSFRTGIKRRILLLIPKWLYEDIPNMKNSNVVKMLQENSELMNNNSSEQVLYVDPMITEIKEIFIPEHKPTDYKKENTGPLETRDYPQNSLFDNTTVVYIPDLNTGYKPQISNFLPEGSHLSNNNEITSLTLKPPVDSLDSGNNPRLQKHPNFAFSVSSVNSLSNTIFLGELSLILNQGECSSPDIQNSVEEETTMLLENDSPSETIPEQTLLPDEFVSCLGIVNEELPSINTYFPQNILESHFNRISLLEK

[1] = test system: IL-23 mediated STAT3 signalling (DB cells); assay: Functional inhibition of IL-23 mediated STAT3 signalling (phospho-STAT3 Tyr705) in DB cells; format: cell-based, human; conditions: for IC50: Table 3-2, EC80 of hIL-23, read-out: hIL-23 (pSTAT3) antagonist IC50; for hIL-23 (pSTAT3) antagonist % inhibition: Table 3-2, maximal inhibitory response, EC80 of hIL-23
Method in brief: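 DB cells preincubated 15 min with inhibitor at 37° C, 5% CO2, then stimulated 90 min with hIL-23 at EC80. Lysate phospho-STAT3 measured by MSD electrochemiluminescence. Signal normalized to IL-23-alone and buffer wells; IC50 and maximal inhibition from concentration–response curves.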

[2] = Peptide stability in simulated gastric fluid (SGF); format: in vitro ADME; conditions: pig, pH 1.2, pepsin, 37° C.
Method in brief: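 Peptide (10 μM final) incubated at 37 °C in USP SGF, pH 1.2 with porcine pepsin 3.2 g/L; aliquots at 0, 1 and 4 h quenched in acidified acetonitrile.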

[3] = Peptide stability in simulated intestinal fluid (SIF); format: in vitro ADME; conditions: pig, simulated intestinal fluid, SIF, pH 6.8, pancreatin, 37° C., 10 μM; for remaining at 4 h, 10 µM: read-out: SIF (% remaining 4 h)
Method in brief: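 Peptide at 10 μM final in USP-type SIF (10 g/L porcine pancreatin, phosphate buffer pH 6.8), shaken at 37 °C. Samples at 0, 1 and 4 h quenched in acetonitrile/0.1% formic acid and analysed by LC-HRMS. Percent remaining calculated from absolute peak areas relative to time zero.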

IL-23R = conditions: see Examples of WO2023/099669; cited from earlier work

Emax (human IL-23R; read-out: % displacement (hIL-23R binding)) | IC50 [1] | remaining at 1 h, 10 µM [2] | remaining at 1 h, 10 µM [3] | IC50 (human IL-23R) | remaining at 4 h, 10 µM [2] | remaining at 4 h, 10 µM [3] | Compound | hIL-23 (pSTAT3) antagonist % inhibition [1] | inhibitory activity (in words), WO2023/099669 (IL-23R)
102% | 1 nM | 100% | 82% |  |  |  | CNC(=O)[C@H](Cc1cccnc1)NC(=O)[C@@H](CO)NC(=O)[C@@H]1CCC(=O)NCc2ccc(cc2)CC(=O)N[C@@H](CO)C(=O)N[C@H]2CCC(=O)NCC[C@H](NC(=O)[C@H](CCC(N)=O)NC(=O)[C@H](Cc3c[nH]c4ccccc34)NC2=O)C(=O)N[C@@H](Cc2ccc(OCCN)cc2)C(=O)N[C@@H](Cc2ccc3ccccc3c2)C(=O)N[C@@](C)(CC(C)C)C(=O)N1 [Compound 38, [4-Aminomethyl-phenylacetyl](1c)*SE(2c)WQ[Dab](2c)[Y(2-aminoethoxy)][2-Nal][2-Me-Leu]E(1c)[{d}S][3-(3-Pyridyl)-Ala]-[NHMe]] | 100% | 
 | 0.51 nM |  |  | 0.024 nM | 96% | 85% | CNC(=O)[C@H](Cc1cccnc1)NC(=O)[C@](C)(CO)NC(=O)[C@@H]1CCC(=O)NCc2ccc(cc2)CC(=O)N[C@@H](CO)C(=O)N[C@H]2CCC(=O)NCC[C@H](NC(=O)[C@H](CCC(N)=O)NC(=O)[C@H](Cc3c[nH]c4ccccc34)NC2=O)C(=O)N[C@@H](Cc2ccc(OCCN)cc2)C(=O)N[C@@H](Cc2ccc3ccccc3c2)C(=O)N[C@@](C)(CC(C)C)C(=O)N1 [Compound 39, [4-Aminomethyl-phenylacetyl](1c)*SE(2c)WQ[Dab](2c)[Y(2-aminoethoxy)][2-Nal][2-Me-Leu]E(1c)[2-Me-Ser][3-(3-Pyridyl)-Ala]-[NHMe]] | 101% | 
 | 0.33 nM | 103% | 97% | 0.069 nM | 85% | 92% | CNC(=O)[C@H](Cc1cccnc1)NC(=O)[C@H](CCN)NC(=O)[C@@H]1CCC(=O)NCc2ccc(cc2)CC(=O)N[C@@H](C)C(=O)N[C@H]2CCC(=O)NCC[C@H](NC(=O)[C@H](CCC(N)=O)NC(=O)[C@H](Cc3c[nH]c4ccccc34)NC2=O)C(=O)N[C@@H](Cc2c[nH]c3c(F)cccc23)C(=O)N[C@@H](Cc2ccc3ccccc3c2)C(=O)NC(C)(C)C(=O)N1 [Compound 47, [4-Aminomethyl-phenylacetyl](1c)*AE(2c)WQ[Dab](2c)[7-F-Trp][2-Nal][Aib]E(1c)[Dab][3-(3-Pyridyl)-Ala]-[NHMe]] | 98% | 
 |  |  |  |  |  |  | D(1c)*SC(2a)WQC(2a)WWLR(1c)* [Ref 6] |  | inactive
 |  |  |  |  |  |  | H-DC(1a)SE(2c)WQK(2c)WWLC(1a)R-[NH2] [Ref 5] |  | inactive
 |  |  |  |  |  |  | [Ac]-DK(1c)SC(2a)WQC(2a)WWLE(1c)R-[NH2] [Ref 7] |  | inactive
